Reference: PMC12291851, “Hydrogen Sulfide (H2S)-Donating Formyl Peptide Receptor 2 (FPR2) Agonists: Design, Synthesis, and Biological Evaluation in Primary Mouse Microglia Culture” (Antioxidants, 2025)

Assays:
APP/PS1 mice = test system: APP/PS1 mice; parameters: method as in PMID 34468933; settings: in vivo administration, ref [21]; cited from earlier work
HepG2 cells = assay: Intracellular H2S release with WSP-1 probe; format: cell-based, human; settings: HepG2, tested concentrations 100-300 μM, 60 min
Experimental: All cell culture reagents were purchased from S.I.A.L. S.r.l. (Rome, Italy). WSP-1 (Washington State Probe-1, 3′-methoxy-3-oxo-3H-spiro[isobenzofuran-1,9′-xanthen]-6′-yl 2-(pyridine-2-yl-disulfanyl benzoate), was obtained from Cayman Chemical (Cayman, Ann Arbor, MI, USA). HepG2, human hepatocellular carcinoma cells, was obtained from American Type Culture Collection (ATCC, Bethesda, MD, USA). Human hepatocellular carcinoma cells (HepG2) were cultured in Minimum Essential Eagle’s Medium. This medium was supplemented with 10% (v/v) Fetal Bovine Serum, 1% (v/v) Glutamine and 1% (v/v) Penicillin-Streptomycin, 1% non-essential amino acids. Cells were cultivated at 37 °C with 5% CO2 at saturated humidity.
These experiments were carried out as already described. HepG2 cells were cultured up to about 90% confluence, and 24 h before the experiment cells were seeded into a 96-well flat bottom black plate (50,000 cells per well). After 24 h, the medium was replaced and cells were incubated at 37 °C for 30 min with a 10 mM solution of the fluorescent WSP-1 probe, which is highly sensitive for H2S detection. After incubation, the supernatant was removed and replaced with different concentrations (100, 200, and 300 µM) of the tested compounds dissolved in HBSS buffer. […] ADT 100 µM was used as a slow H2S-donor reference compound. Data were analyzed by one-way ANOVA for repeated measures, followed by post hoc Bonferroni’s multiple comparison test. Results are expressed as mean ± SEM of 3 independent experiments in triplicate. Statistical significance was accepted at a level of p < 0.05.
Next, we assessed the intracellular H2S release of thioureas and thioamides in HepG2 cells. The compounds were tested at different concentrations (100–300 μM) to evaluate if the release was dose-dependent. We also assayed ADT-OH and TIA as reference H2S-donors, and 3a as a negative control. The results were normalized to the fluorescence signal obtained with 100 μM ADT-OH.

[1] = Cell-free H2S release fluorescence assay with probe 9 (7-azido-4-methylcoumarin); format: physicochemical; settings: overall, 24 h and 48 h, PBS/DMSO 10%
Experimental: The H2S release fluorescence assay was carried out in a final volume of 100 μL PBS/DMSO 10% in black 96-well plates. Solutions with decreasing concentrations of each tested compound were prepared in PBS/DMSO 10%. Then, 50 μL of each solution was dispensed in triplicate in each well. Starting from a 10 mM stock solution, a 200 μM solution of probe 9 was prepared and stored in the dark until 50 μL was dispensed in each well. Blank wells containing only the probe at 100 μM in 100 μL of PBS/DMSO 10% are also prepared. A H2S calibration curve was obtained by incubating solutions of NaSH with the probe under the same conditions, although a different plate was used to minimize interferences due to the diffusion of rapidly released H2S. After 24 h and 48 h incubation in a humidified incubator at 37 °C, 5% CO2, fluorescence reads are obtained from each well with a plate reader TECAN M1000 Pro (Tecan, Männedorf, Switzerland), at λex = 350 nm and λem = 440 nm. Each experiment was replicated at least three times. The data were processed using Microsoft Excel (Microsoft, Redmond, WA, USA) and GraphPad Prism 7 (GraphPad Software, La Jolla, CA, USA).
Compound 9 is a turn-on fluorescent probe that features an azido moiety which can be reduced to amine by H2S, leading to the formation of the fluorescent derivative 7-amino-4-methylcoumarin 10 (λex = 350 nm and λem = 440 nm, Scheme 2). We included NaHS in the assay as a positive control and 3a as a negative control.

[2] = Cell-free MTT-based H2S release assay; format: physicochemical; settings: 24 h incubation in MEM with 10% DMSO
Experimental: Solutions at different concentrations of each compound in 100 µL of serum-free MEM/10% DMSO with 0.5 mg/mL 3-(4,5-dimethylthiazol-2yl)-2,5-diphenyltetrazolium bromide (MTT) were incubated for 5 h or 24 h in a humidified incubator at 37 °C in 5% CO2 atmosphere. The experimental design comprised blank wells containing only medium and MTT, and a H2S calibration curve obtained by incubating nine solutions at decreasing concentrations (100 µM to 0.01 µM) of NaHS in medium and MTT. At the end of incubation time, the supernatant was removed, the […] crystals were dissolved in 100 µL DMSO/EtOH (1:1 v/v), and absorbance values were read using a Victor 3 plate reader (PerkinElmer, Shelton, CT, USA) at 570 nm. H2S values are expressed as mean ± S.E.M. of the results of three independent experiments conducted in triplicate, and were plotted using GraphPad Prism 7.
To decipher such results and considering the redox properties of H2S, we questioned if H2S released by our compounds in the culture media could interfere with the conversion of MTT (3-[4,5-dimethylthiazol-2-yl]-2,5-diphenyl tetrazolium bromide) to formazan, which is usually related to cell viability. Thus, we ran cell-free experiments in which MTT was used as the substrate to capture the reductive action of H2S. We found, in agreement with Gerő et al., that some of our thioureas and thioamides reduced MTT to formazan after 24 h incubation in MEM with 10% DMSO.

[3] = test system: mouse models of autism spectrum disorder; parameters: method as in PMID 35215274; settings: chronic administration; ref [22]; cited from earlier work
[4] = test system: HepG2 hepatocarcinoma cells; assay: MTT cell viability assay, MTT added directly to treated media; format: cell-based, human; settings: HepG2, highest tested doses 200 and 20 µM, vehicle 5% DMSO
Experimental: The cytotoxicity of our compounds was assessed using the well-established MTT assay. HepG2 hepatocarcinoma cells were cultured in Minimum Essential Medium (MEM) (Euroclone, Pero, Italy), supplemented with 10% fetal bovine serum (Euroclone, Pero, Italy), 100 U/mL penicillin, and 100 µg/mL streptomycin sulfate, at 37 °C in a humidified incubator in 5% CO2 atmosphere. For the MTT assays, these cells were cultured up to about 90% confluence and were then seeded at a concentration of 20,000 cells per well in 96-well plates. After 24 h, the culture medium was replaced with solutions at various concentrations of each compound in MEM/DMSO 5% (v/v). Control wells were incorporated in the experimental design, consisting of vehicle (MEM/DMSO 5%) and pure medium controls.
In the first round of cytotoxicity assays, 0.5 mg/mL MTT was added to each well 2 or 24 h from treatment and left to incubate for 3–5 h. In the second round of cytotoxicity assays, at 2 or 24 h after treatment, treated media were removed, the cells were washed once in PBS, and fresh medium containing 0.5 mg/mL MTT was added to each well and left to incubate for 3–5 h.
Subsequently, the supernatant was removed, and the formazan crystals were dissolved in DMSO/EtOH 1:1 (100 µL/well). Absorbance values were then recorded from each well using a Victor 3 plate reader (PerkinElmer, Shelton, CT, USA) at 570 nm. All presented data were obtained from 3 to 5 experiments performed in triplicate. Cell viability values are expressed as mean ± S.E.M. and were plotted using GraphPad Prism 7.
Next, we assessed H2S release in a biological environment using human hepatocarcinoma HepG2 cells as a model. The intracellular release of H2S was detected with the WSP-1 probe, a turn-on fluorescent probe that selectively and irreversibly reacts with H2S. Considering that a high micromolar concentration of the test compounds is required to obtain a robust fluorescent signal, we first evaluated the compounds’ cytotoxicity after 2 h and 24 h of incubation with the MTT assay in HepG2 cells. […] We accounted for this by adding a vehicle control with 5% DMSO and a control without DMSO to our experimental design.

[5] = test system: LPS-stimulated rat primary microglial cells and mice organotypic hippocampal cultures; settings: LPS stimulation; ref [19],[20]; cited from earlier work

## N#Cc1ccc(C[C@H](NC(=O)Nc2ccc(F)cc2)C(=O)NCC2(c3ccc(F)c(Cl)c3)CC2)cc1 [3a, (S)-N-[[1-(3-chloro-4-fluorophenyl)cyclopropyl]methyl]-3-(4-cyanophenyl)-2-[3-(4-fluorophenyl)ureido]propenamide, reference compound]
APP/PS1 mice
  neuronal survival, microglial cell density and plaque load: improvement of neuronal survival and decreased microglial cell density and plaque load
HepG2 cells
  intracellular H2S release, WSP-1 fluorescence signal vs vehicle: comparable to that of the vehicle
[1]
  H2S release detected with probe 9 in aqueous media: no response
[2]
  absorbance signal (MTT reduction to formazan) indicative of H2S release: no signal
[3]
  inflammatory markers and social behavior: improved inflammatory markers, with a beneficial effect on social behavior
[4]
  mortality compared to vehicle (MTT): > 50%
[5]
  effect on LPS-induced pro- and anti-inflammatory cytokine levels: anti-inflammatory properties
